Data: PubChem BioAssay (NCI)
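How tested: cells in 96-well plates exposed to compound for 48 hours at five concentrations. GI50 marks 50% less growth. TGI: concentration producing complete growth inhibition.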

Columns and labels:
Assay in all cases: DTP human tumour cell line panel, 48 h
[1] = tested on: T-47D breast
[2] = tested on: UO-31 renal
[3] = tested on: HCT-116 colon
[4] = tested on: M14 melanoma
[5] = tested on: RPMI-8226 leukemia
[6] = tested on: SW-620 colon
[7] = tested on: SK-OV-3 ovarian
[8] = tested on: CCRF-CEM leukemia

Compound	GI50 [1]	TGI [1]	GI50 [2]	TGI [2]	GI50 [3]	TGI [3]	GI50 [4]	TGI [4]	GI50 [5]	TGI [5]	GI50 [6]	TGI [6]	GI50 [7]	TGI [7]	GI50 [8]	TGI [8]
O=C(/C=C/c1cccc(Cl)c1)c1ccc(Cl)cc1Cl	9.11 µM	25.9 µM	11.4 µM	25.8 µM	20.4 µM	> 50 µM	14 µM	31 µM	1680 nM	> 50 µM	2360 nM	38.7 µM	9.91 µM	21.7 µM		
COc1ccc(C(O)c2cc3c(N)c(C(=O)Nc4cccc(Br)c4)sc3nc2C)cc1 (configuration not stated)	22.5 µM	> 100 µM	0.271 µM	> 31.3 µM	0.107 µM	16.8 µM	0.0318 µM	14.1 µM	371 nM	33.6 µM	126 nM	> 100 µM	0.197 µM	> 65.1 µM	121 nM	> 100 µM
COc1ccc([C@H]2O[C@@H](CO)C[C@]2(O)c2ccc(OC)cc2)cc1			> 100 µM	> 100 µM	> 100 µM	> 100 µM			> 100000 nM	> 100 µM	> 100000 nM	> 100 µM	> 100 µM	> 100 µM	> 100000 nM	> 100 µM
O=C(/C=C/c1ccco1)Nc1ncc(Cc2ccc(F)cc2)s1	0.03 µM	> 100 µM	0.194 µM	> 100 µM	0.0408 µM	> 100 µM	0.036 µM	> 100 µM	72.1 nM	> 100 µM	44.3 nM	> 100 µM	0.0455 µM	> 100 µM	61.4 nM	> 100 µM
Cn1ccnc1C(=O)/C=C/c1ccc(C(=O)Nc2nc3ccccc3[nH]2)cc1	3.37 µM	> 25 µM	2.07 µM	> 25 µM	1.5 µM	> 25 µM	10.3 µM	> 25 µM	810 nM	> 25 µM	808 nM	> 25 µM			1280 nM	> 25 µM
COC(=O)CCC1=C(C)c2cc3[n-]c(cc4nc(cc5[n-]c(cc1n2)c(CCC(=O)OC)c5C)C=C4C)cc3C.[Cd+2]	2.47 µM	6.95 µM	21.7 µM	65.7 µM	8.42 µM	25.3 µM	5.54 µM	22.8 µM	4230 nM	> 29.5 µM	4440 nM	18.4 µM	7.4 µM	27.7 µM	3340 nM	> 56.4 µM
C=C(C)C1/C=C(/C(C)C)CC[C@]2(C)O[C@@H]2CC[C@H](C)CC1=O (some centres not stated)	76.7 µM	> 100 µM	28.6 µM	98.1 µM	17.7 µM	42.2 µM	49.6 µM	> 100 µM	15500 nM	34.4 µM			> 100 µM	> 100 µM	18500 nM	37.3 µM
O=c1[nH]c(-c2ccc(C(F)(F)F)cc2)nc2c1CSCC2	23.7 µM	98.1 µM	5.43 µM	> 67.4 µM	> 63.7 µM	> 100 µM	68.7 µM	> 100 µM	> 100000 nM	> 100 µM	> 100000 nM	> 100 µM	30 µM	99.8 µM	> 100000 nM	> 100 µM
c1ccc(-c2nc(N3CCNCC3)c3nc(-c4ccccc4)oc3n2)cc1			1.53 µM	2.91 µM	1.25 µM	2.9 µM	1.96 µM	3.71 µM	2080 nM	4.64 µM	1860 nM	3.57 µM	2 µM	3.71 µM	1380 nM	3.83 µM
CC(=O)OC1CCC2(C)C(=CC(C3C=C4CC(OC(C)=O)CCC4(C)C4=C3C3CC5OC6(CCC(C)CO6)C(C)C5C3(C)CC4)C3=C2CCC2(C)C3CC3OC4(CCC(C)CO4)C(C)C32)C1 (configuration not stated)		42.7 µM		28.9 µM		28.4 µM		26.9 µM		16.2 µM				32.7 µM		
FC(F)(F)c1ccc(-c2cnc(Br)nc2NC2CCCCCC2)cc1	19.6 µM	> 100 µM	33.9 µM	> 100 µM	14.4 µM	> 100 µM	> 100 µM	> 100 µM	7980 nM	> 100 µM	96700 nM	> 100 µM	> 100 µM	> 100 µM	84700 nM	> 100 µM
COc1ccc(NC(=O)c2cc(OC)c(OC)c(OC)c2)cc1O	9.89 µM	> 100 µM	18.1 µM	> 100 µM	4.21 µM	> 100 µM	2.91 µM	> 100 µM	5930 nM	> 100 µM	1110 nM	> 100 µM	4.95 µM	> 100 µM	4130 nM	> 100 µM
COc1ccc(/C=C\c2cc(OC)c(OC)c(OC)c2)c(NS(=O)(=O)c2ccc(C)cc2)c1O	21 µM	> 100 µM	0.335 µM	> 65.8 µM	0.0357 µM	> 100 µM	0.0307 µM	> 33.2 µM	50.2 nM	23.9 µM	44.7 nM	> 100 µM	0.685 µM	> 100 µM	40.7 nM	> 100 µM
O=[As](O)(O)c1ccc(Cc2ccc([As](=O)(O)O)cc2)cc1		1.87 µM		2.63 µM		2.13 µM		2.46 µM		0.984 µM		2.18 µM		6.19 µM		1.05 µM
Fc1ccc(-c2ncn(C3CCNCC3)c2-c2ccnc(Oc3cccc(F)c3)n2)cc1	13.8 µM	> 25 µM	6.77 µM	> 25 µM	9.3 µM	> 21.4 µM	5.26 µM	10.5 µM	24600 nM	> 25 µM	5540 nM	> 14.7 µM	> 22.1 µM	> 25 µM		
COc1cc(C2C(C#N)=C(N)OC3=C2C(=O)c2ccccc2C3=O)cc(OC)c1OC (configuration not stated)	3.72 µM	20.4 µM	2.79 µM	21.3 µM	0.43 µM	30.6 µM	0.395 µM	16.1 µM	1360 nM	33.5 µM	413 nM	25.9 µM	4.88 µM	> 100 µM		
